From ChEMBL document CHEMBL3745617 (J Med Chem, 2015)

Biological target: Receptor-type tyrosine-protein kinase FLT3 (Homo sapiens) (UniProt P36888)
Conditions: BaF3
Description: Inhibition of wild-type FLT3 (unknown origin) expressed in BaF3 cells assessed as inhibition of cell proliferation after 72 hrs by CelltiterGlo assay

Sequence of Receptor-type tyrosine-protein kinase FLT3 (Homo sapiens) (P36888 whole entry): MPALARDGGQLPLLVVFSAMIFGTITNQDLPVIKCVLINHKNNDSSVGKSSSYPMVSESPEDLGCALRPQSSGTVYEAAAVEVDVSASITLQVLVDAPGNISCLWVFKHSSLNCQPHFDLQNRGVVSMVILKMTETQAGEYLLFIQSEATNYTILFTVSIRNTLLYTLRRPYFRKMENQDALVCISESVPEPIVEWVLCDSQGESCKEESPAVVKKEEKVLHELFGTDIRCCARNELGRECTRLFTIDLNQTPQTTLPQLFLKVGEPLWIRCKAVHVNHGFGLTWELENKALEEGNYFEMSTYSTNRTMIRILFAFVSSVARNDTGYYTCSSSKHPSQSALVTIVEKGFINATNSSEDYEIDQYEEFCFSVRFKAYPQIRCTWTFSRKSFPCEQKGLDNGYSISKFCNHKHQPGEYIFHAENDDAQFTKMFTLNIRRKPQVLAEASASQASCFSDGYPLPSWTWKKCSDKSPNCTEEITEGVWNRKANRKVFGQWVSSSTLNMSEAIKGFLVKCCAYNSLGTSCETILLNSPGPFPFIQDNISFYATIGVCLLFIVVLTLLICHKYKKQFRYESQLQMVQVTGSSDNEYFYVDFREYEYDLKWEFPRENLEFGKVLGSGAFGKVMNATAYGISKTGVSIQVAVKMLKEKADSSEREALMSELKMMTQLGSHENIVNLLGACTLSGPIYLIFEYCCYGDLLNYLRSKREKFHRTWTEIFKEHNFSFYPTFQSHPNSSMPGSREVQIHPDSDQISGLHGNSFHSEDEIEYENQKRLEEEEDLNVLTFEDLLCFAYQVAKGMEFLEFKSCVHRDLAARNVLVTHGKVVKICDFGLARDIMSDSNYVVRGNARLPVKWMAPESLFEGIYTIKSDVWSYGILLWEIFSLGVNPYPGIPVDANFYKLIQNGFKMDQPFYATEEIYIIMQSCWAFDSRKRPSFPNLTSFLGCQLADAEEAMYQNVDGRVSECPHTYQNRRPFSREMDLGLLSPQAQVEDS

CN(C)CC(=O)N1CCC[C@@H](n2nc(-c3ccc(Oc4ccccc4)cc3)c3c(N)ncnc32)C1 was tested, and the GI50 was 16 nM.
